According to patent publication US7468375B2 (Pfizer Inc., priority 2004, dated 2008):
Like-named read-outs stand apart in the source and are kept apart here.

Tested on: RF strain of HIV-1 in CEM-SS cells
Test: HIV-1 cell protection assay (XTT dye reduction)
Assay type: cell-based
Details: Human immunodeficiency virus 1, CEM-SS, 144 h
Protocol: HIV-1 Cell Protection Assay
The antiviral activities of potential modulator compounds (test compounds) were determined in HIV-1 cell protection assays using the RF strain of HIV-1, CEM-SS cells, and the XTT dye reduction method (Weislow, O. S. et al., J. Natl. Cancer Inst. 81: 577-586 (1989)). Subject cells were infected with HIV-1 RF virus at an moi of 0.025 to 0.819 or mock infected with medium only and added at 2×10^4 cells per well into 96 well plates containing half-log dilutions of test compounds. Six days later, 50 μl of XTT solution (1 mg/ml XTT tetrazolium and […] phenazine methosulfate) were added to the wells and the plates were reincubated for four hours. Viability, as determined by the amount of XTT formazan produced, was quantified spectrophotometrically by absorbance at 450 nm. Data from CPE assays were expressed as the percent of formazan produced in compound-treated cells compared to formazan produced in wells of uninfected, compound-free cells. […] The therapeutic index was calculated by dividing the cytotoxicity (CC50) by the antiviral activity (EC50).

[1] = HIV-1 RF, CEM-SS cells, XTT dye reduction, six days, read-out: EC50

| Compound | EC50 [1] [nM] | EC50 [nM] |
| --- | --- | --- |
| C=Cc1c(C(=O)NO)ncc2c1ccn2Cc1ccc(F)cc1 [Example 39, 1-(4-Fluorobenzyl)-N-hydroxy-4-vinyl-1H-pyrrolo[2,3-c]pyridine-5-carboxamide] | 3.05 |  |
| CCCN(CCO)Cc1cn(Cc2ccc(F)cc2)c2cnc(C(=O)NOCC)cc12 [Example 115, N-ethoxy-1-(4-fluorobenzyl)-3-{[(2-hydroxyethyl)(propyl)amino]methyl}-1H-pyrrolo[2,3-c]pyridine-5-carboxamide] | 3700 |  |
| CCONC(=O)c1cc2c(CN(C)CCCN(C)C)cn(Cc3ccc(F)cc3)c2cn1 [Example 116, 3-{[[3-(Dimethylamino)propyl](methyl)amino]methyl}-N-ethoxy-1-(4-fluorobenzyl)-1H-pyrrolo[2,3-c]pyridine-5-carboxamide] | 3900 |  |
| CCOCCOCc1cn(Cc2ccc(F)cc2)c2cnc(C(=O)NOC)cc12 [Example 121, 3-[(2-Ethoxyethoxy)methyl]-1-(4-fluorobenzyl)-N-methoxy-1H-pyrrolo[2,3-c]pyridine-5-carboxamide] | 512 |  |
| COCc1cn(Cc2ccc(F)cc2)c2cnc(C(=O)N(C)O)cc12 [Example 122, 1-(4-Fluorobenzyl)-AN-hydroxy-3-(methoxymethyl)-N-methyl-1H-pyrrolo[2,3-c]pyridine-5-carboxamide] |  | 242 |
